These are literature values, as cited in patent US8575155B2, “Composition and method to modify sperm function and increase male gender ratio in mammals” (priority 2008, dated 2013).

The structures appear in SMILES notation.

Series [1] deals with early-staged mouse embryos.

Turning to `CCN(CC)c1cc2c(cc1C)Nc1ccc(N)cc1O2` [BCB, 2-methyl-3-diethylamino-7-amino phenoxazine], the “increase in oxidation of glucose through the HMS” value in the series on bovine oocytes is given as 15 fold. In the series on bovine oocytes (compared with the increase through the HMS), the “increase in glucose oxidation through glycolysis” value is listed as “somewhat less increase”. The “toxicity of BCB and its metabolites” value in series [1] is “relatively non-toxic”.
